# Data from patent publication US11179412B2, “Methods of treating conditions involving elevated inflammatory response” (University of Pittsburgh—Of the Commonwealth System of …, priority 2017, dated 2021).
# Structures can show the parent of a compound that is named as a salt.
# System: STING activation (IFNβ release) in iBMDMs
# Assay: IFNβ release ELISA after STING ligand (or LPS) stimulation, iBMDMs
# Format: cell-based, mouse
# Outline: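 iBMDMs were stimulated with a STING ligand such as 3′3′-cGAMP, or with LPS. Secreted IFNβ in culture medium was measured by commercial mouse or human IFNβ ELISA.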
# [1] = iBMDMs, 3′3′-cGAMP 10 μg/ml, 16 hours, compound 10 μM
Compound,fold increase in IFN-β release [1],"fold increase in IFN-β release (16 h, 10 µM)"
CCCCCCCCCCCC1=C(O)C(=O)C=C(O)C1=O [Embelin],0.17 fold,–
"OC[C@H]1O[C@@H](c2ccc(Cl)c(Cc3ccc(O[C@H]4CCOC4)cc3)c2)[C@H](O)[C@@H](O)[C@@H]1O [Empagliflozin (BI 10773), Empagliflozin]",0.57 fold,–
C[C@H](N[C@@H](CCc1ccccc1)C(=O)O)C(=O)N1CCC[C@H]1C(=O)O.O.O [Enalaprilat Dihydrate],2.71 fold,–
CCN(CC)C(=O)/C(C#N)=C/c1cc(O)c(O)c([N+](=O)[O-])c1 [Entacapone],0.76 fold,–
"CNC(=O)c1ccc(N2C(=S)N(c3ccc(C#N)c(C(F)(F)F)c3)C(=O)C2(C)C)cc1F [Enzalutamide (MDV3100), Enzalutamide]",0.50 fold,–
"Cn1cc(C2=C(c3cn(C4CCN(Cc5ccccn5)CC4)c4ccccc34)C(=O)NC2=O)c2ccccc21 [Enzastaurin (LY317615), Enzastaurin]",1.02 fold,–
CCOc1ccccc1-n1c(C(C)N2CCN(C(=O)COc3ccc(Cl)cc3)CC2)nc2ccccc2c1=O (stereo not shown) [Erastin],4.52 fold,–
COc1ccc2nc([S@@+]([O-])Cc3ncc(C)c(OC)c3C)[nH]c2c1 [Esomeprazole Sodium],0.95 fold,–
CCc1cccc2c3c([nH]c12)C(CC)(CC(=O)O)OCC3 (stereo not shown) [Etodolac],0.35 fold,–
CCOC(=O)c1cncn1[C@H](C)c1ccccc1 [Etomidate],0.86 fold,–
"CO[C@H]1C[C@@H]2CC[C@@H](C)[C@@](O)(O2)C(=O)C(=O)N2CCCC[C@H]2C(=O)O[C@H]([C@H](C)C[C@@H]2CC[C@@H](OCCO)[C@H](OC)C2)CC(=O)[C@H](C)/C=C(\C)[C@@H](O)[C@@H](OC)C(=O)[C@H](C)C[C@H](C)/C=C/C=C/C=C/1C [Everolimus (RAD001), Everolimus]",1.01 fold,–
C=C1C[C@@H]2[C@H](CC[C@]3(C)C(=O)CC[C@@H]23)[C@@]2(C)C=CC(=O)C=C12 [Exemestane],–,1.11 fold
Cc1nc(C(=O)NCC(=O)O)c(O)c2ccc(Oc3ccccc3)cc12 [FG-4592],0.73 fold,–
CC1=C(C(=O)OC2CCCCC2)C(c2ccc([N+](=O)[O-])cc2)C2=C(CC(C)(C)CC2=O)N1 (stereo not shown) [FLI-06],2.06 fold,–
CCOC(=O)C1=C(C)NC(C)=C(C(=O)OC)C1c1cccc(Cl)c1Cl (stereo not shown) [Felodipine],0.69 fold,–
"CCOC(=O)c1ccc(NC2CCCCC2)c(N)c1 [Ferrostatin-1 (Fer-1), Ferrostatin-1]",2.54 fold,–
"O=C(Nc1nc2cccc(-c3ccc(CN4CCS(=O)(=O)CC4)cc3)n2n1)C1CC1 [Filgotinib (GLPG0634), Filgotinib]",2.35 fold,–
CC(C)(C)NC(=O)[C@H]1CC[C@H]2[C@@H]3CC[C@H]4NC(=O)C=C[C@]4(C)[C@H]3CC[C@]12C [Finasteride],0.85 fold,–
"CCCCCCCCc1ccc(CCC(N)(CO)CO)cc1 [Fingolimod (FTY720) HCl, Fingolimod]",–,0.77 fold
CC(C)n1c(/C=C/C(O)CC(O)CC(=O)O)c(-c2ccc(F)cc2)c2ccccc21 (stereo not shown) [Fluvastatin Sodium],0.32 fold,–
COCCCC/C(=N\OCCN)c1ccc(C(F)(F)F)cc1 [Fluvoxamine maleate],1.80 fold,–
COc1ccc(C[C@@H](C)NC[C@H](O)c2ccc(O)c(NC=O)c2)cc1.COc1ccc(C[C@@H](C)NC[C@H](O)c2ccc(O)c(NC=O)c2)cc1.O=C(O)/C=C/C(=O)O [Formoterol Hemifumarate],1.76 fold,–

Compound,fold increase in IFN-β release [1],"fold increase in IFN-β release (16 h, 10 µM)"
C=C[C@@]1(C)CC(=O)[C@]2(O)[C@@]3(C)[C@@H](O)CCC(C)(C)[C@@H]3[C@H](O)[C@H](OC(C)=O)[C@@]2(C)O1 [Forskolin],0.81 fold,–
"COc1cc(Nc2ncc(F)c(Nc3ccc4c(n3)N(COP(=O)(O)O)C(=O)C(C)(C)O4)n2)cc(OC)c1OC [Fostamatinib (R788), Fostamatinib]",0.69 fold,–
C[C@]12CC[C@@H]3c4ccc(O)cc4C[C@@H](CCCCCCCCC[S+]([O-])CCCC(F)(F)C(F)(F)F)[C@H]3[C@@H]1CC[C@@H]2O (stereo partly shown) [Fulvestrant],0.52 fold,–
CN[C@@H](C)C(=O)N[C@H](C(=O)N1CCC[C@H]1C(=O)Nc1snnc1-c1ccccc1)C1CCCCC1 [GDC-0152],1.79 fold,–
CS(=O)(=O)N1CCN(Cc2cc3nc(-c4cccc5[nH]ncc45)nc(N4CCOCC4)c3s2)CC1 [GDC-0941],2.13 fold,–
CNc1nc(Nc2cn(C(C)(C)C#N)nc2C)ncc1C(F)(F)F [GNE-0877],1.32 fold,–
CCNc1nc(Nc2cc(F)c(C(=O)N3CCOCC3)cc2OC)ncc1C(F)(F)F [GNE-7915],2.41 fold,–
CNc1nc(Nc2cnn([C@H]3CCN(C4COC4)C[C@@H]3F)c2Cl)ncc1C(F)(F)F [GNE-9605],1.10 fold,–
NC(=O)c1cccc(-c2cc(Nc3ccc(OC(F)(F)F)cc3)ncn2)c1 [GNF-2],0.56 fold,–
O=C(NCCO)c1cccc(-c2cc(Nc3ccc(OC(F)(F)F)cc3)ncn2)c1 [GNF-5],2.94 fold,–
CC1=C(C(=O)Nc2cc3cn[nH]c3cc2F)C(c2ccc(C(F)(F)F)cc2)CC(=O)N1 (stereo not shown) [GSK429286A],2.79 fold,–
C[C@@H](Oc1cc(-n2cnc3ccc(CN4CCN(C)CC4)cc32)sc1C(N)=O)c1ccccc1C(F)(F)F [GSK461364],0.21 fold,–
CCn1c(-c2nonc2N)nc2c(C#CC(C)(C)O)ncc(OC[C@H]3CCCNC3)c21 [GSK690693],1.12 fold,–
CC(C)c1noc(N2CCC(COc3ccc(-c4ccc(S(C)(=O)=O)cc4)nc3)CC2)n1 [GSK1292263],2.58 fold,–
CCc1cc(Nc2nccc(-c3c(-c4ccc(OC)c(C(=O)Nc5c(F)cccc5F)c4)nc4ccccn34)n2)c(OC)cc1N1CCC(N2CCN(S(C)(=O)=O)CC2)CC1 [GSK1904529A],1.05 fold,–
Cn1cc(-c2ccc3c(c2)CCN3C(=O)Cc2cccc(C(F)(F)F)c2)c2c(N)ncnc21 [GSK2606414],1.40 fold,–
Cc1cccc(CC(=O)N2CCc3c2ccc(-c2cn(C)c4ncnc(N)c24)c3F)n1 [GSK2656157],1.58 fold,–
CCOC(=O)CCNc1cc(N2CCc3ccccc3CC2)nc(-c2ccccn2)n1.Cl [GSK J4 HCl],0.40 fold,–
Cc1cc(SCc2sc(-c3ccc(C(F)(F)F)c(F)c3)nc2C)ccc1OCC(=O)O [GW0742],0.13 fold,–
COc1ccc(COc2ccc(Cc3cnc(N)nc3N)cc2OC)cc1 [GW2580],1.21 fold,–
Cl.O=C(O)Cc1cccc(OCCCN(Cc2cccc(C(F)(F)F)c2Cl)CC(c2ccccc2)c2ccccc2)c1 [GW3965 HCl],0.74 fold,–
CC(C)c1onc(-c2c(Cl)cccc2Cl)c1COc1ccc(/C=C/c2cccc(C(=O)O)c2)c(Cl)c1 [GW4064],1.26 fold,–

Compound,fold increase in IFN-β release [1],"fold increase in IFN-β release (16 h, 10 µM)"
O=C(O)CCc1ccc(NCc2cccc(Oc3ccccc3)c2)cc1 [GW9508],0.80 fold,–
O=C(Nc1ccccc1)c1cc([N+](=O)[O-])ccc1Cl [GW9662],2.50 fold,–
"CC(C)c1cc(-c2n[nH]c(=O)n2-c2ccc3c(ccn3C)c2)c(O)cc1O [Ganetespib (STA-9090), Ganetespib]",1.80 fold,–
C[C@@H]1C(=O)O[C@H]2C[C@@]34[C@H]5C[C@@H](C(C)(C)C)[C@]36[C@@H](OC(=O)[C@@H]6O)O[C@@]4(C(=O)O5)[C@]21O [Ginkgolide A],2.14 fold,–
CC1C(=O)OC2C(O)C34C5CC(C(C)(C)C)C36C(OC(=O)C6O)OC4(C(=O)O5)C12O (stereo not shown) [Ginkgolide B],1.44 fold,–
Cc1ccc(S(=O)(=O)NC(=O)NN2CC3CCCC3C2)cc1 (stereo not shown) [Gliclazide],1.93 fold,–
COc1ccc2c(c1)C(=O)N(CCc1ccc(S(=O)(=O)NC(=O)NC3CCCCC3)cc1)C(=O)C2(C)C [Gliquidone],1.20 fold,–
COc1ccc2c(c1)c(C1=C(c3c[nH]c4ccccc34)C(=O)NC1=O)cn2CCCN(C)C [Go 6983],0.26 fold,–
Fc1cc(F)c2c(c1)C1C=CCC1C(c1cccnc1)N2 (stereo not shown) [Golgicide A],4.19 fold,–
Cl.Cl.O=S(=O)(NCCNC/C=C/c1ccc(Br)cc1)c1cccc2cnccc12 [H 89 2HCl],1.91 fold,–
CCOC(=O)C1=C(N)Oc2ccc(Br)cc2C1C(C#N)C(=O)OCC (stereo not shown) [HA14-1],0.45 fold,–
CC(C)c1ccc(NC(=O)Cn2cnc3c2c(=O)n(C)c(=O)n3C)cc1 [HC-030031],1.05 fold,–
Cc1cc(C)c(S(=O)(=O)n2cc(C)cc2C)c(C)c1 [HJC0350],1.05 fold,–
COc1cc2c(cc1-c1c(C)noc1C)ncc1[nH]c(=O)n([C@H](C)c3ccccn3)c12 [I-BET151 (GSK1210151A)],0.40 fold,–
O=C1[C@H](Cc2ccc(O)cc2)N2C(=O)CCN(C(=O)NCc3ccccc3)[C@H]2CN1Cc1cccc2ccccc12 [ICG-001],0.10 fold,–
O=C(c1ccc(Nc2nccc(-c3cc4ccccc4s3)n2)cc1)N1CCC(N2CCCC2)CC1 [IKK-16 (IKK Inhibitor VII)],1.16 fold,–
O=C(Nc1cc(C(F)(F)F)cc(C(F)(F)F)c1)c1cc(Cl)ccc1O [IMD 0354],0.86 fold,–
O=C(O)CNC(=O)c1c(O)c2ccccc2n(Cc2ccccc2)c1=O [IOX2],0.44 fold,–
Oc1ccc2ccccc2c1SSc1c(O)ccc2ccccc12 [IPA-3],0.35 fold,–
Cc1ccc2nc(NC(=O)CSc3nc4c(c(=O)n3-c3ccccc3)SCC4)sc2c1 [IWP-2],3.84 fold,–
